Source: BindingDB's records for doi:10.7270/Q2930RT9 (The Scripps Research Institute Molecular Screening Center, 2014)

Molecular target: T1, Disintegrin and metalloproteinase domain-containing protein 10 (Homo sapiens, UniProt O14672)
T1 sequence (O14672 whole entry): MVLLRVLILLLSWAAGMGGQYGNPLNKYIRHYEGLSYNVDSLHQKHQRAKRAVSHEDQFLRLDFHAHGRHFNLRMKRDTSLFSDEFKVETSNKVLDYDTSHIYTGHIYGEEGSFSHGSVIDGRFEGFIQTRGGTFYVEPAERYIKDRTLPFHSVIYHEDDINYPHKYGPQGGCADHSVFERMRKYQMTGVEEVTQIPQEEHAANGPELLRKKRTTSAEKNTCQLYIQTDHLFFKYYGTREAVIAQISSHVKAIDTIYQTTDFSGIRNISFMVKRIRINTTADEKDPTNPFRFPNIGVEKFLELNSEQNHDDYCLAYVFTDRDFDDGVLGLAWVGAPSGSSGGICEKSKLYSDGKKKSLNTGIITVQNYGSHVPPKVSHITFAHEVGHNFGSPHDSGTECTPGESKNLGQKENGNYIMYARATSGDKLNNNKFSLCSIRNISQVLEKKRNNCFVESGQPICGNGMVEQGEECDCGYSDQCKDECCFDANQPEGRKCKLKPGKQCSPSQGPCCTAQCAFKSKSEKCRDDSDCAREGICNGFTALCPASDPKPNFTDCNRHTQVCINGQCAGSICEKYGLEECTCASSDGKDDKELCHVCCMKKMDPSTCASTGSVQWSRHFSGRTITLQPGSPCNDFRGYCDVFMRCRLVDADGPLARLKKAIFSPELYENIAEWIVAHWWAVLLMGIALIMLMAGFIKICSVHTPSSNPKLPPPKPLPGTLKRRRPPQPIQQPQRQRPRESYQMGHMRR
Assay: ADAM10 inhibitors, peptide cleavage, dose response, biochemical, QFRET (AID 743254)

Compound | IC50
CSc1nsc2nc(=O)c(/C=C3\C=Nc4ccccc43)c(N)n12 [5-amino-6-[(Z)-3-indolylidenemethyl]-3-(methylthio)-[1,2,4]thiadiazolo[4,5-a]pyrimidin-7-one] | 7.43 µM
O=C1c2ccccc2C(=O)N1CCCc1nc(-c2ccncc2)no1 [2-[3-(3-pyridin-4-yl-1,2,4-oxadiazol-5-yl)propyl]isoindole-1,3-dione] | 37.6 µM
O=c1[nH][nH]c2cc(=O)n(-c3ccc(Cl)cc3)nc12 [5-(4-chlorophenyl)-1,2-dihydropyrazolo[4,3-c]pyridazine-3,6-dione] | 10.1 µM
COC(=O)CCCC1=CC2=CC(=O)C(C)(OC(=O)C3CCCC3)C(=O)C2=CO1 (configuration not stated) [SMR000452591] | 7.23 µM
Cc1cccc(S(=O)(=O)C(C#N)c2nc3ccccc3nc2N2CCOCC2)c1 (configuration not stated) [2-(3-methylphenyl)sulfonyl-2-(3-morpholin-4-ylquinoxalin-2-yl)acetonitrile] | 69.5 µM
O=C1OCCN1C(=O)C1=[N+](c2ccc(Br)cc2)N[C-](c2ccc(F)cc2)[C@H]1c1ccc([N+](=O)[O-])cc1 [MLS000517953] | 18.5 µM
CCCNc1c(F)c(F)c2c(C)c3ccccc3nc2c1F [1,2,4-trifluoro-9-methyl-N-propyl-3-acridinamine] | 69.5 µM
Cc1ccc(OCC(=O)Nc2nnc[nH]2)c(Br)c1 [2-(2-bromanyl-4-methyl-phenoxy)-N-(1H-1,2,4-triazol-5-yl)ethanamide] | 7.45 µM
Cc1cc(C=C2C(=O)NC(=O)N(c3ccc(F)cc3)C2=O)c(C)n1-c1cccc(C(=O)O)c1 [3-[3-[(E)-[1-(4-fluorophenyl)-2,4,6-tris(oxidanylidene)-1,3-diazinan-5-ylidene]methyl]-2,5-dimethyl-pyrrol-1-yl]benzoic acid] | 19.4 µM
O=C1OCCN1C(=O)C1=[N+](c2ccc(Br)cc2)N[C-](c2cccc(Cl)c2)[C@H]1c1ccc([N+](=O)[O-])cc1 [MLS000517955] | 21.4 µM
CC(/C=C1\N=C(SCc2ccccc2Cl)SC1=O)=C\c1ccccc1 [(4Z)-2-[(2-chlorophenyl)methylsulfanyl]-4-[(E)-2-methyl-3-phenyl-prop-2-enylidene]-1,3-thiazol-5-one] | 12 µM
CC(C)C1Nc2ccc(S(N)(=O)=O)cc2C2C=CCC21 (configuration not stated) [SMR000070348] | 13.3 µM
Cc1ccc(NCC(=O)NN=Cc2ccc(C(=O)O)cc2)cc1 [4-[[2-[(4-methylphenyl)amino]ethanoylhydrazinylidene]methyl]benzoic acid] | 15.6 µM
COC(=O)c1ccc(-n2c(C)cc(CN=Nc3nc(C)cc(=O)[nH]3)c2C)cc1 [SMR000364461] | 69.5 µM
COc1ccc(N=C(C)c2sc3ccccc3c2O)cc1 [(2Z)-2-[1-(4-methoxyanilino)ethylidene]-1-benzothiophen-3-one] | 24 µM
COc1cc(OC)c(C2C3=C(CC(C)(C)CC3=O)OC(=N)C2C#N)cc1OC (configuration not stated) [SMR000054706] | 8.8 µM
O=C1C=CC([N+](=O)[O-])=CC1CN=Nc1ccccn1 (configuration not stated) [MLS000585015] | 27.5 µM
O=C(CC1CCCCC1)Nc1nc[nH]n1 [2-cyclohexyl-N-(1H-1,2,4-triazol-5-yl)ethanamide] | 69.5 µM
O=c1[nH]c(=O)n(-c2ccc(Br)cc2)c(O)c1C=NCCN1CCCCC1 | 11.7 µM

Compound | IC50
CCOC(=O)Cc1csc(NC(=O)c2sc3nc4cc(C)ccc4cc3c2N)n1 [2-[2-[(3-amino-7-methyl-thieno[2,3-b]quinoline-2-carbonyl)amino]thiazol-4-yl]acetic acid ethyl ester] | 7.72 µM
Cc1nnc(=O)[nH]c1N=NCC1C=CC(=O)C([N+](=O)[O-])=C1 (configuration not stated) [MLS000585487] | 69.5 µM
Cc1cc(/C=C(/C#N)c2nc3ccccc3[nH]2)c(C)n1-c1ccccc1C(=O)O [2-[3-[(Z)-2-(1H-benzimidazol-2-yl)-2-cyanoethenyl]-2,5-dimethylpyrrol-1-yl]benzoic acid] | 12.5 µM
Oc1cc(N(CCc2ccccc2)C(=S)Nc2cc(Cl)ccc2Cl)c(O)n1-c1c(Cl)cccc1Cl [3-[2,5-bis(chloranyl)phenyl]-1-[1-[2,6-bis(chloranyl)phenyl]-2,5-bis(oxidanylidene)pyrrolidin-3-yl]-1-(2-phenylethyl)thiourea] | 69.5 µM
N#Cc1c(Cl)nc(N=NCc2ccccc2)c(Cl)c1Cl [2,4,5-tris(chloranyl)-6-[(2E)-2-(phenylmethylidene)hydrazinyl]pyridine-3-carbonitrile] | 69.5 µM
COc1ccc(N2C(=O)NC(=O)C(=Cc3c[nH]c4ccc(Br)cc34)C2=O)c(OC)c1 [(5E)-5-[(5-bromo-1H-indol-3-yl)methylene]-1-(2,4-dimethoxyphenyl)pyrimidine-2,4,6(1H,3H,5H)-trione] | 5.44 µM
Cc1cccc(Oc2nc(-c3ccccn3)nc3ccccc23)c1 [2-Pyridin-2-yl-4-m-tolyloxy-quinazoline] | 69.5 µM
COc1ccc(-c2nnc(SCC(=O)Nc3cc(S(=O)(=O)N4CCCCC4)ccc3Cl)n2N)cc1 [SMR000243460] | 7.72 µM
N#CCSc1nc2cc(C(=O)N3CCC(C(N)=O)CC3)ccc2c2nc3ccccc3n12 [1-({6-[(cyanomethyl)thio]benzimidazo[1,2-c]quinazolin-3-yl}carbonyl)piperidine-4-carboxamide] | 18.2 µM
COc1ccc(C=CC(=O)c2c(O)n(CCC3=CCCCC3)c(=O)[nH]c2=O)cc1OC [SMR000221147] | 69.5 µM
O=C(Cn1cncn1)NN=Cc1c2ccccc2cc2ccccc12 [N-(9-anthracenylmethylideneamino)-2-(1,2,4-triazol-1-yl)acetamide] | 69.5 µM
Fc1c(F)c(C(F)(F)F)c(F)c(F)c1N=NCc1cccs1 [MLS000533109] | 69.5 µM
CN1C(=O)C(=CNCCCCCCCCCCC(=O)O)C(=O)N(C)C1=O [11-[[1,3-dimethyl-2,4,6-tris(oxidanylidene)-1,3-diazinan-5-ylidene]methylamino]undecanoic acid] | 13.1 µM
Cn1nc(-c2ccccn2)nc2c(=O)n(C)c(=O)nc1-2 [1,6-dimethyl-3-(2-pyridinyl)pyrimido[5,4-e][1,2,4]triazine-5,7(1H,6H)-dione] | 69.5 µM
O=C1/C(=C/c2cccs2)SC(=S)N1NS(=O)(=O)c1ccccc1 | 69.5 µM
C(=CN=Nc1nc2ccccc2s1)Cc1ccccc1 [3-phenylacrylaldehyde 1,3-benzothiazol-2-ylhydrazone] | 69.5 µM
O=C(O)CCc1ccc(-c2ccccc2)n1-c1cccc(C(=O)O)c1 [3-[2-(2-carboxyethyl)-5-phenyl-1-pyrrolyl]benzoic acid] | 9.61 µM
COc1cc(CN=O)cc(Br)c1OCc1ccc(Cl)cc1 [3-bromo-4-[(4-chlorobenzyl)oxy]-5-methoxybenzaldehyde oxime] | 69.5 µM
